Measured values reported in patent US20150240295A1, “REACTIVE, LIPOPHILIC NUCLEOSIDE BUILDING BLOCKS FOR THE SYNTHESIS OF HYDROPHOBIC NUCLEIC ACIDS” (IONOVATION GMBH, priority 2012, published 2015).

Columns and labels:
OVCAR-5 = experiment: Oncological test, cell growth against OVCAR-5; type: cell-based, human; conditions: FIGS. 10 and 11
Description: (§1) FIGS. 10 to 17 show the activity of compounds ESP—2.2, ESP—2.5 and ESP—31 according to the invention as well as the comparative examples ESP—2 and ESP—3 (Table 4) in relation to the concentration employed against various different cancer cells. […] The x-axis depicts the molar concentration of the respective compound on a logarithmical scale.

IGR-OV1 = experiment: Oncological test, cell growth against IGR-OV1; type: cell-based, human; conditions: FIGS. 12 and 13
Description: as §1

HCT-15 cells = experiment: Oncological test, cell growth against HCT-15; type: cell-based, human; conditions: for cell growth (inhibition / cytotoxic effect): FIGS. 14 and 15
Description: as §1

786-0 cells = experiment: Oncological test, cell growth against 786-0; type: cell-based; conditions: FIGS. 16 and 17
Description: as §1

various cancer cells = experiment: Oncological tests, summary of FIGS. 10 to 17; type: cell-based; conditions: ovarian, colon and kidney cancer cells
Description: as §1

Compound | melting point [°C] | cell growth (inhibition / cytotoxic effect) (OVCAR-5) | cell growth (inhibition / cytotoxic effect) (IGR-OV1) | cell growth (inhibition / cytotoxic effect) (HCT-15 cells) | cell growth (inhibition / cytotoxic effect) (786-0 cells) | also measured
COc1ccc(C(OC[C@H]2O[C@@H](n3cnc4c(=O)n(C/C=C(\C)CCC=C(C)C)cnc43)C[C@@H]2O)(c2ccccc2)c2ccc(OC)cc2)cc1 [Compound 4a, 9-((2R,4S,5R)-5-((Bis(4-methoxyphenyl)(phenyl)methoxy)-methyl)-4-hydroxytetrahydrofuran-2-yl)-1-((E)-3,7-di-methylocta-2,6-dienyl)-1H-purin-6(9H)-one] | 74 | – | – | – | – | –
COc1ccc(C(OC[C@H]2O[C@@H](n3cnc4c(=O)n(C/C=C(\C)CC/C=C(\C)CCC=C(C)C)cnc43)C[C@@H]2O)(c2ccccc2)c2ccc(OC)cc2)cc1 [Compound 4b, 9-((2R,4S,5R)-5-((Bis(4-methoxyphenyl)(phenyl)methoxy)-methyl)-4-hydroxytetrahydrofuran-2-yl)-1-((2E,6E)-3,7,11-trimethyldodeca-2,6,10-trienyl)-1H-purin-6(9H)-on] | 68 | – | – | – | – | –
O=c1cnn([C@@H]2O[C@H](CO)[C@@H](O)[C@H]2O)c(=O)[nH]1 [ESP—2, 6-azauridine, reference compound] | – | no activity | slight inhibition | slight inhibition of the growth of the cells | – | –
CCOC(=O)CC[C@@]1(C)OC2C(O1)[C@@H](COC(c1ccccc1)(c1ccccc1)c1ccc(OC)cc1)O[C@H]2n1ncc(=O)[nH]c1=O (stereo partly drawn) [ESP—2.2] | – | inhibition of cell growth | activity of the compound could be increased | increased activity | – | –
CCOC(=O)CC[C@]1(C)OC2[C@@H](CO)O[C@@H](n3ncc(=O)n(C/C=C(\C)CCC=C(C)CCC=C(C)C)c3=O)[C@H]2O1 (stereo partly drawn) [ESP—2.5] | – | high cytotoxicity | improved inhibition effect | increased activity | high cytotoxic effect | death of the cells (HCT-15 cells; high dosage): over 50%; activity / cytotoxicity against various cancer cells (various cancer cells): particular high cytotoxicity
O=c1ccn([C@@H]2O[C@H](CO)[C@@H](O)[C@H]2O)c(=O)[nH]1 [ESP—3, uridine, reference compound] | – | no activity | did not even cause a growth inhibition | – | did not show any activity at all | –
CCCCCCCCCC1(CCCCCCCCC)OC2[C@@H](CO)O[C@@H](n3ccc(=O)[nH]c3=O)[C@H]2O1 (stereo partly drawn) [ESP—31] | – | cytotoxicity | vast improvement with respect to the cytotoxic activity | high cytotoxic activity | cytotoxic effect | –

Second part, led by results:

melting point [°C] | Compound | cell growth (inhibition / cytotoxic effect) (OVCAR-5) | cell growth (inhibition / cytotoxic effect) (IGR-OV1) | cell growth (inhibition / cytotoxic effect) (HCT-15 cells) | cell growth (inhibition / cytotoxic effect) (786-0 cells) | also measured
90.1 | CCCCCCCCCCCCCC1(CCCCCCCCCCCCC)O[C@@H]2[C@H](O1)[C@@H](CO)O[C@H]2n1ccc(=O)[nH]c1=O [Compound 25c, 1-((3aR,4R,6R,6aR)-6-(hydroxymethyl)-2,2-ditridecyltetrahydrofuro[3,4-d][1,3]dioxol-4-yl)pyrimidin-2,4(1H,3H)-dione] | – | – | – | – | –
93 | CCCCCCCCCCCCCCCC1(CCCCCCCCCCCCCCC)OC2C(CO)OC(n3ccc(=O)[nH]c3=O)C2O1 (stereo not drawn) [Compound 25d, 1-(6-Hydroxymethyl-2,2-dipentadecyl-tetrahydro-furo[3,4-d][1,3]dioxol-4-yl)-1H-pyrimidin-2,4-dione] | – | – | – | – | –
89.7 | CCCCCCCCCCCCCCCCCC1(CCCCCCCCCCCCCCCCC)OC2C(CO)OC(n3ccc(=O)[nH]c3=O)C2O1 (stereo not drawn) [Compound 25e, 1-(2,2-Diheptadecyl-6-hydroxymethyl-tetrahydro-furo[3,4-d][1,3]dioxol-4-yl)-1H-pyrimidin-2,4-dione] | – | – | – | – | –
